Assay results taken from publication PMC6471225 (Molecules, 2019).

Legend:
[1] = test system: TBEV Hypr strain; assay type: cell-based, tick-borne encephalitis virus
[2] = test system: TBEV Neudoerfl strain; assay type: cell-based, tick-borne encephalitis virus
[3] = test system: TBEV Neudoerfl strain; test: microbe, parasite or virus in culture; assay type: cell-based, tick-borne encephalitis virus; conditions: for IC50: Tick-borne encephalitis virus, A549, 72 h, read-out: half-maximum inhibitory concentration (IC50), reduction of viral titer by 50%
[4] = in vitro; conditions: human, cytotoxic concentration (CC50) required to reduce cell viability by 50%
[5] = test system: TBEV Hypr strain; assay type: cell-based, tick-borne encephalitis virus; remark: listed apart in the source
[6] = test system: TBEV E and prM proteins; assay type: cell-based, tick-borne encephalitis virus
[7] = test system: A549 cells; conditions: human

Structure (SMILES)	cell viability after inhibitory treatment (protection from TBEV-induced CPE) [1]	inhibition of TBEV infection, size and number of plaques [2]	reduction of number of plaques vs DMSO-treated infected cells [2]	selectivity index (SI) CC50/IC50 [3]	IC50 [3]	CC50 [4]	other results
CC1(C)OC2C(COC3CC(OCc4ccccc4)C(OCc4ccccc4)C(CO[Si](C)(C)C(C)(C)C)O3)OC(n3ccc(=O)n(C(=O)c4ccccc4)c3=O)C2O1 (stereo not shown) [Compound 10]	90%	nearly a complete inhibition of TBEV infection	82–96%	18.6	6.5 µM	121 µM	–
CC(=O)OCC1OC(OCC2OC(n3ccc(=O)n(Cc4ccccc4)c3=O)C3OC(C)(C)OC23)CC(OC(C)=O)C1OC(C)=O (stereo not shown) [Compound 8]	–	–	–	–	–	225 µM	–
CC(=O)O[C@H]1[C@H](C)O[C@H](OC[C@H]2O[C@@H](n3ccc(=O)[nH]c3=O)[C@@H]3OC(C)(C)O[C@@H]32)C[C@@H]1O[Si](C)(C)C(C)(C)C [Compound 1]	–	minor or no antiviral effect	–	–	–	74 µM	effect on viral growth [3]: did not affect viral growth; effect on viral growth [5]: did not affect viral growth
CC1(C)OC2C(COC3CC(OCc4ccccc4)C(OCc4ccccc4)C(CO)O3)OC(n3ccc(=O)n(C(=O)c4ccccc4)c3=O)C2O1 (stereo not shown) [Compound 11]	81%	nearly a complete inhibition of TBEV infection	82–96%	13.8	10.2 µM	141 µM	–
CC1(C)OC2C(COC3CC(OCc4ccccc4)C(OCc4ccccc4)C(COCc4ccccc4)O3)OC(n3ccc(=O)n(C(=O)c4ccccc4)c3=O)C2O1 (stereo not shown) [Compound 4]	~99%	nearly a complete inhibition of TBEV infection	90%	85	1.4 µM	119 µM	plaque formation [2]: no plaques were detected; reduction of the viral titer vs infected mock-treated cells [3]: 10^4 fold; virus detection in supernatant [3]: no virus was detected; synthesis of E and prM proteins [6]: completely inhibited the synthesis of both proteins
CC(=O)OCC1OC(OCC2OC(n3ccc(=O)[nH]c3=O)C3OC(C)(C)OC23)CC(OC(C)=O)C1OC(C)=O (stereo not shown) [Compound 6]	–	–	–	–	–	196 µM	–
CC1(C)OC2C(COC3CC(OCc4ccccc4)C(OCc4ccccc4)C(COCc4ccccc4)O3)OC(n3ccc(=O)[nH]c3=O)C2O1 (stereo not shown) [Compound 3]	–	minor or no antiviral effect	–	–	–	97 µM	effect on viral growth [3]: did not affect viral growth; effect on viral growth [5]: did not affect viral growth
CC1(C)OC2C(COC3CC(OCc4ccccc4)C(OCc4ccccc4)C(CO[Si](C)(C)C(C)(C)C)O3)OC(n3ccc(=O)[nH]c3=O)C2O1 (stereo not shown) [Compound 5]	–	–	–	–	–	79 µM	–
O=c1ccn(C2OC(COC3CC(O)C(O)C(CO)O3)C(O)C2O)c(=O)[nH]1 (stereo not shown) [Compound 9]	–	–	–	–	–	238 µM	–
CC(=O)O[C@H]1[C@H](C)O[C@H](OC[C@H]2O[C@@H](n3ccc(=O)n(C(=O)c4ccccc4)c3=O)[C@@H]3OC(C)(C)O[C@@H]32)C[C@@H]1O[Si](C)(C)C(C)(C)C [Compound 2]	~99%	nearly a complete inhibition of TBEV infection	98%	26.6	5.3 µM	141 µM	plaque formation [2]: no plaques were detected; TBEV titer [3]: undetectable levels
CC(=O)OCC1OC(OCC2OC(n3ccc(=O)[nH]c3=O)C3OC(C)(C)OC23)CC(OC(C)=O)C1OC(C)=O (stereo not shown) [Compound 7]	–	–	–	–	–	–	CC50 [7]: 223 µM
